The source made the active and inactive calls. The rule behind the calls is not given here.

The subject of data set [1] is MGC-803. Put plainly: Antitumor activity against human MGC-803 cells xenografted in BALB/c-nude mouse assessed as tumor growth inhibition at 30 mg/kg/day, ip administered for 18 days relative to control. Format: functional. As to conditions: MGC-803, 432 h, time 18 day, read-out: TGI. For orientation: In xenograft studies the graft and the host belong to different species.

Data set [2] relates to MGC-803. Put plainly: Antiproliferative activity against human MGC-803 cells assessed as reduction in cell viability incubated for 12 to 48 hrs by MTT assay. The class given is functional, cell-based. As to conditions: dose 20-80 µM, time 12-48 hrs. In general terms: Tetrazolium dyes change colour on reduction, which living cells bring about.
Data set [3] can be described thus: Toxicity in BALB/c-nude mouse xenografted with human MGC-803 cells assessed as alteration in kidney tissue at 30 mg/kg/day, ip administered for 18 days by hematoxylin and eosin staining based analysis. Format: organism-based. As to conditions: in vivo, 432 h, time 18 day.
Data set [4] relates to MGC-803. Put plainly: Inhibition of colony formation in human MGC-803 cells incubated for 7 days by crystal violet staining based analysis. Format: functional, cell-based. Particulars: dose 24-40 nmol/L, time 7.0 day.
The target in data set [5] is Tubulin beta (Homo sapiens) (UniProt P68371+Q9H4B7+Q13509+P04350+Q3ZCM7+P07437+Q13885+Q9BVA1+Q9BUF5+A6NNZ2). Put plainly: Binding affinity to beta-tubulin (unknown origin) assessed as increase in alkaline protease level at 1 to 100 uM preincubated for 1 hr followed by alkaline protease addition and measured after 15 mins by Western blotting analysis. The class given is protein assay. Particulars: dose 1-100 µM, time 75.0 min. (In general: In western blotting, separated proteins are transferred to a membrane and probed.)

Data set [6] deals with T1, Tubulin (Homo sapiens) (UniProt P68371+Q9H4B7+P0DPH7+P68366+Q13509+Q71U36+P04350+Q3ZCM7+P07437+P68363+Q9BQE3+Q6PEY2+Q13885+Q9BVA1+Q9BUF5). Put plainly: Inhibition of tubulin polymerization (unknown origin) at 3 uM by fluorescence plate reader analysis. Format: protein-complex assay.
The subject of data set [7] is MGC-803. Put plainly: Antiproliferative activity against human MGC-803 cells assessed as increase in nuclear concentration at 10 to 40 nmol/L incubated for 48 hrs by DAPI staining based fluorescence microscopic analysis. The class given is functional, cell-based. Particulars: dose 10-40 nmol/L.
For data set [8], the system named is MGC-803. Put plainly: Anti-migratory activity against human MGC-803 cells assessed as inhibition of cell migration at lower concentration measured for 48 hrs by wound healing assay. The class given is functional, cell-based.
Data set [9] deals with T1, Tubulin (Homo sapiens). Put plainly: Inhibition of tubulin polymerization in human MGC-803 cells assessed as reduction in filamentous microtubule structure formation at 10 to 40 nmol/L incubated for 48 hrs by DAPI staining based fluorescence microscopic analysis. Format: cell-based. As to conditions: dose 10-40 nmol/L.
Data set [10] relates to MGC-803. Put plainly: Induction of apoptosis in human MGC-803 cells assessed as early apoptotic cells at 20 nmol/L incubated for 48 hrs by Annexin V-FITC/propidium iodide staining based flow cytometer analysis (reference value: 4.38 %). Format: functional.
A short description of data set [11]: Toxicity in BALB/c-nude mouse xenografted with human MGC-803 cells assessed as abnormal behaviour at 30 mg/kg/day, ip administered for 18 days. The class given is organism-based. As to conditions: in vivo, 432 h, time 18 day.
In data set [12] the test system is MGC-803. Put plainly: Antitumor activity against human MGC-803 cells xenografted in BALB/c-nude mouse assessed as tumor growth rate at 30 mg/kg/day, ip administered for 18 days relative to control. Format: functional. As to conditions: time 18 day.
In data set [13] the test system is MGC-803. Put plainly: Antiproliferative activity against human MGC-803 cells assessed as decrease in cell density at 10 to 40 nmol/L incubated for 48 hrs by bright field microscopic analysis. Particulars: dose 10-40 nmol/L. The class given is functional, cell-based.
In data set [14] the test system is MGC-803. Put plainly: Antiproliferative activity against human MGC-803 cells assessed as decrease in cell damage at 10 to 40 nmol/L incubated for 48 hrs by bright field microscopic analysis. The class given is functional, cell-based. Particulars: dose 10-40 nmol/L.
In data set [15] the test system is MGC-803. Put plainly: Induction of cell cycle arrest in human MGC-803 cells at M phase assessed as increase in p-Histone H3 level at 10 to 40 nmol/L incubated for 48 hrs by Western blotting. Format: functional, cell-based. Particulars: dose 10-40 nmol/L.
Data set [16] can be described thus: Toxicity in BALB/c-nude mouse xenografted with human MGC-803 cells assessed as alteration in spleen tissue at 30 mg/kg/day, ip administered for 18 days by hematoxylin and eosin staining based analysis. Particulars: in vivo, 432 h, time 18 day. Format: organism-based.
Data set [17] concerns MGC-803. Put plainly: Induction of cell cycle arrest in human MGC-803 cells assessed as increase in G2/M phase cells at 10 to 40 nmol/L incubated for 24 hrs by RNAse/propidium iodide staining based flow cytometry analysis relative to control. Format: functional. Particulars: dose 10-40 nmol/L, at 10 to 40 nM.

Regarding `COc1ccc2c(c1)CCCN2c1cc(=O)oc2ccccc12`, the inhibition in vivo at 30 mg/kg/day in data set [1] stood at 65.5%. Also, the Activity result in [2] was “Dose-Dependent Effect”; in [3] it was “Non-Toxic”; in [10], 9.14%; in [11], “Non-Toxic”; in data set [12], 25%; in data set [16], “Non-Toxic”. Further, the Activity in [17] came to 18%. For the same compound, the inhibition result in [4] was “Dose-Dependent Effect”. For the same compound, the result in data set [5], in data set [7], in data set [8], in [13], in data set [14] and in data set [15] was Active. Further, the inhibition result in [6] and in data set [9] was “Active” throughout.

These data come from ChEMBL document CHEMBL5518178 (Eur J Med Chem, 2024).
